Source: ChEMBL document CHEMBL1140269, “Amino-substituted heterocycles as isosteres of trans-cinnamides: design and synthesis of heterocyclic biaryl sulfides as potent antagonists of LFA-1/ICAM-1 binding” (Bioorg Med Chem Lett, 2005)
Values belong to the compound of their own block, whether it stands above or below them.

Experiments:
[1] = target: T1, Intercellular adhesion molecule (ICAM-1), Integrin alpha-L/beta-2 (Homo sapiens) (UniProt P20701+P05362+P05107); assay: Inhibitory activity against ICAM-1/integrin LFA-1 binding complex at 20 uM concentration; type: protein-complex assay
[2] = target: T2, Intercellular adhesion molecule (ICAM-1), Integrin alpha-L/beta-2 (Homo sapiens, UniProt P05107+P20701); assay: Inhibitory concentration against integrin LFA-1/ICAM-1 binding complex; type: protein-complex assay
T2 sequence (P20701 whole entry): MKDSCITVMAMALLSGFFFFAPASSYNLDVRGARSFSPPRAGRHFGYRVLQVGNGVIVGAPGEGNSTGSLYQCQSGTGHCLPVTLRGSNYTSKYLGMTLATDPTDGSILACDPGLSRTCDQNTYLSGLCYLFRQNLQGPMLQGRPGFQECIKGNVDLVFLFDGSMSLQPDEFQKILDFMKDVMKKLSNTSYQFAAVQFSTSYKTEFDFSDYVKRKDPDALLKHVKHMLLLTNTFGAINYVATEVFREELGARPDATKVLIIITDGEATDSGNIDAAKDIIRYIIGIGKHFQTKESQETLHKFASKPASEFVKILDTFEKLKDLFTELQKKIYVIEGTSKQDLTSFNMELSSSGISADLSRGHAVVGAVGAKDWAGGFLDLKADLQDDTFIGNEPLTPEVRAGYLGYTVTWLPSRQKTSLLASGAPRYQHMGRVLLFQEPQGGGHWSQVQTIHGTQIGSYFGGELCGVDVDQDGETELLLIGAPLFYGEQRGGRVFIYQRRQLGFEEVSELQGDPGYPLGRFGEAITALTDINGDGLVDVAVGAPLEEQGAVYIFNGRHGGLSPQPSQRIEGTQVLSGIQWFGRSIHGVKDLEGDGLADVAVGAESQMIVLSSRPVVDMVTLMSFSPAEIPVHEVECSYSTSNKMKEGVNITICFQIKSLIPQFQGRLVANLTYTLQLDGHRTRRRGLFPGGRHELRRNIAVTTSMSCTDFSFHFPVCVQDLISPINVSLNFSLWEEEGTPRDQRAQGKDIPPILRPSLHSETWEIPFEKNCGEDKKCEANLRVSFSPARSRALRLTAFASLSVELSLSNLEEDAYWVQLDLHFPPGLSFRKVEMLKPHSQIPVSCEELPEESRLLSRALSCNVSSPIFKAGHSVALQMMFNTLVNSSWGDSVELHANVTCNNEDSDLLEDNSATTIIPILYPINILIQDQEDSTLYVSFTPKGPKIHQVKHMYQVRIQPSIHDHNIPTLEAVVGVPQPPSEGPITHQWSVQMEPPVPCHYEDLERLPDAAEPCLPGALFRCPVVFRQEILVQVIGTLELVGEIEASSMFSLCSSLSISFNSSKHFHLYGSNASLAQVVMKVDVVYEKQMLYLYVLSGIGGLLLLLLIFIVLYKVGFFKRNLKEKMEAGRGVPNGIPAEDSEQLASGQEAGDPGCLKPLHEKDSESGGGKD
T2 sequence (P05362 whole entry, further chain): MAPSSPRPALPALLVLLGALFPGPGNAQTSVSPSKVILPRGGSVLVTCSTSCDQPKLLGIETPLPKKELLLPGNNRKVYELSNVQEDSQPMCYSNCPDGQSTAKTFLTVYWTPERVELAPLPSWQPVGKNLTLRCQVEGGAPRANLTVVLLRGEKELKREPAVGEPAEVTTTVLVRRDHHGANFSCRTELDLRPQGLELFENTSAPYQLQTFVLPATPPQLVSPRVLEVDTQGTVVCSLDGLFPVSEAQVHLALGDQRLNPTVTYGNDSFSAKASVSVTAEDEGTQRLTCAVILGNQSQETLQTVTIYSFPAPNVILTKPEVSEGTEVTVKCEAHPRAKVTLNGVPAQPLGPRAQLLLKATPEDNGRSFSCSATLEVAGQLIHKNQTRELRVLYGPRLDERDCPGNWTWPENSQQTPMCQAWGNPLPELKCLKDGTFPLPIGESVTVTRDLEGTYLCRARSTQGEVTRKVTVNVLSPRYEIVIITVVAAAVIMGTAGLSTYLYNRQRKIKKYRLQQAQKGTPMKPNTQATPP
T2 sequence (P05107 whole entry): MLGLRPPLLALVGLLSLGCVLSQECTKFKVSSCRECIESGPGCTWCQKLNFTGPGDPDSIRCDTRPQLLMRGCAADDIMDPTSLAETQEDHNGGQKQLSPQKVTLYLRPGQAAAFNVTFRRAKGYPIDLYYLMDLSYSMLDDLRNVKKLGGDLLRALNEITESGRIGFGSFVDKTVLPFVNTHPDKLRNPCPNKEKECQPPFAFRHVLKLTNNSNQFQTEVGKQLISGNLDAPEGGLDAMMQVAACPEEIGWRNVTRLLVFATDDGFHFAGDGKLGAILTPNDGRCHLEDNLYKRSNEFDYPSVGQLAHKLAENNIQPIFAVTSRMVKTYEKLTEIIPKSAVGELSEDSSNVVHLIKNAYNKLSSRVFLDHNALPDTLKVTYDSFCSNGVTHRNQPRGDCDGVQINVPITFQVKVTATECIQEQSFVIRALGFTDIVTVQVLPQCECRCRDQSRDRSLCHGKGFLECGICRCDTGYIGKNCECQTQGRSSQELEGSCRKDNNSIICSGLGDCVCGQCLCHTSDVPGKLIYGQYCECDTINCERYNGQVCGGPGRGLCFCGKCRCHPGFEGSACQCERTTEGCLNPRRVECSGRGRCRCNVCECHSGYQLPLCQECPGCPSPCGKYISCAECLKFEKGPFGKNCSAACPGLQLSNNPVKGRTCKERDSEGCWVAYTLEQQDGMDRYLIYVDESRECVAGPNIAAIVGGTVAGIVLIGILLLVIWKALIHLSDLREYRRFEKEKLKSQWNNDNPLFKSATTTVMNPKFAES

[3] = target: T2, Intercellular adhesion molecule (ICAM-1), Integrin alpha-L/beta-2; assay: Effective concentration to measure the adherence of LFA-1 expressing JY8 cells to immobilized ICAM-1 in cell-based adhesion assay
[4] = target: T1, Intercellular adhesion molecule (ICAM-1), Integrin alpha-L/beta-2 (Homo sapiens); assay: Inhibitory activity against ICAM-1/integrin LFA-1 binding complex at 1 uM concentration; type: protein-complex assay

inhibition [1]: 40%
SMILES: CC(C)c1ccccc1Sc1ccc(-c2csc(N3CCCCC3)n2)cc1C(F)(F)F

SMILES: CC(C)c1ccccc1Sc1ccc(-c2cc(N3CCCC(C(=O)O)C3)ncn2)cc1C(F)(F)F (centres undefined)
IC50 [2]: 120 nM
EC50 [3]: 90 nM

SMILES: CC(C)c1ccccc1Sc1ccc(-c2cc(N3CCCC(c4nn[nH]n4)C3)ncn2)cc1C(F)(F)F (centres undefined)
IC50 [2]: 51 nM
EC50 [3]: 20 nM

inhibition [4]: 40%
SMILES: CC1CCN(c2cc(-c3ccc(Sc4ccccc4C(C)C)c(C(F)(F)F)c3)ccn2)CC1

inhibition [4]: 21%
SMILES: CC(C)c1ccccc1Sc1ccc(-c2ccnc(N3CCN(C4CCCCC4)CC3)c2)cc1C(F)(F)F

inhibition [4]: 8%
SMILES: CCCC1CCN(c2cc(-c3ccc(Sc4ccccc4C(C)C)c(C(F)(F)F)c3)ccn2)CC1

inhibition [4]: 82%
SMILES: CC(C)c1ccccc1Sc1ccc(-c2ccnc(N3CCN(c4cnccn4)CC3)c2)cc1C(F)(F)F
